We go through 6 molecules from BindingDB's records for doi:10.1021/jm000991r (University of Bologna, 2001).

Structures are written as SMILES.

In the experiment the target is Cholinesterase (Homo sapiens, UniProt P06276). Briefly: Inhibitory activity against butyrylcholinesterase (BChE) in human […].
Sequence of Cholinesterase (P06276 whole entry): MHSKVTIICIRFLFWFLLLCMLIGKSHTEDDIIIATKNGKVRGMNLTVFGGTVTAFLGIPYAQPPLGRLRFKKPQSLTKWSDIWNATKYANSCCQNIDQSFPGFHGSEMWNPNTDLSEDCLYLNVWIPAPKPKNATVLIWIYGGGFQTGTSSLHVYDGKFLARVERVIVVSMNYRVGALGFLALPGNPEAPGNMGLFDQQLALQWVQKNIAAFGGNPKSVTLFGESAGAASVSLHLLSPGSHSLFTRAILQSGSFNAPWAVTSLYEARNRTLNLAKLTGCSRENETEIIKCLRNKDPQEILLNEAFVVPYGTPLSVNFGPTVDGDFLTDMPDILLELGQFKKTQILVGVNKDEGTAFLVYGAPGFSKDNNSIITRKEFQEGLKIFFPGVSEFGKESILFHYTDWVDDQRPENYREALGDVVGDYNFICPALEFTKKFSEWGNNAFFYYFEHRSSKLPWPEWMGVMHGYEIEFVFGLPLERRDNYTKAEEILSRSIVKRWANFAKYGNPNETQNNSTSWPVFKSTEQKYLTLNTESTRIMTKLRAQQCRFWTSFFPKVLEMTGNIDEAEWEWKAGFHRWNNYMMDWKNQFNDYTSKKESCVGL
What is called IC50 is the concentration at which inhibition is half-maximal. A high value points to a need for much substance. `CN1CC[C@H]2COc3c(O)cccc3[C@H]21` returned an IC50 of 794 µM.
The figure for `O=C(CCCCCCC(=O)NCCCCCCN1CC[C@H]2COc3ccccc3[C@H]21)NCCCCCCN1CC[C@H]2COc3ccccc3[C@H]21` is 0.912 µM; for `CNC(=O)Oc1ccc2c(c1)[C@@H]1[C@@H](CCN1C)CO2` it is 10.2 µM.
As for `CNC(=O)Oc1ccc2c(c1)OC[C@@H]1CC[N+](C)(C)[C@H]21`, the figure is 2.95 µM.
The figure for `CNC(=O)Oc1cccc2c1OC[C@@H]1CCN(C)[C@H]21` [(2S,6R)-3-methyl-8-oxa-3-azatricyclo[7.4.0.0^{2,6}]trideca-1(13),9,11-trien-10-yl N-methylcarbamate] is 0.054 µM.
Molecule `CNC(=O)Oc1ccc2c(c1)OC[C@@H]1CCN(C)[C@H]21` [(3aR,9bS)-1-methyl-1,2,3,3a,4,9b-hexahydrochromeno[4,3-b]pyrrol-7-yl methylcarbamate] returned a half-maximal inhibitory concentration (IC50) of 3.55 µM.
